Read-outs that look alike come from different tables or passages of the source.
Tests used:
aromatase [1] = target: T1, aromatase (Homo sapiens, UniProt P11511); test: Aromatase activity by tritiated water release assay in cultured skin fibroblasts: substrate kinetics and inhibition
T1 sequence (P11511 1-503): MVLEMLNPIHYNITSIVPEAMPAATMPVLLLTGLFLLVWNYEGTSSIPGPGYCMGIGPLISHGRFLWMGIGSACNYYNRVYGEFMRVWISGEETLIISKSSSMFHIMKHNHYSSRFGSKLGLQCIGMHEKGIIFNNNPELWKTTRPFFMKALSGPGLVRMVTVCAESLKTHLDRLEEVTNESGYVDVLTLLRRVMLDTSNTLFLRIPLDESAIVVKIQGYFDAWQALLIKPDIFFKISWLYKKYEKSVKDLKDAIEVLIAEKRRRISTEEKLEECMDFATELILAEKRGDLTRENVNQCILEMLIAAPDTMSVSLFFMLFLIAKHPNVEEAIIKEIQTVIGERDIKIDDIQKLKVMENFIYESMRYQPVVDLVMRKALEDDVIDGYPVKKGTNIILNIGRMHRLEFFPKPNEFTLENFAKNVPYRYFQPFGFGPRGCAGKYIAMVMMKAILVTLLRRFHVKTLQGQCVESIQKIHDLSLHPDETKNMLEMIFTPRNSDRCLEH
Experimental: (§2) Enzymic kinetic values were established by incubating cells with the substrate (androstenedione) in a range of concentrations.
(§3) Enzyme kinetic values were established by incubating cells with the substrate (androstenedione) in a range of concentrations.

aromatase [2] = target: T1, aromatase; test: Aromatase by tritiated water assay in minced scalp skin samples, with and without aromatase inhibitor; format: biochemical; set-up: endogenous in cells; host or cells: cultured human non-follicular skin fibroblast lines (beard, occipital scalp, frontal scalp); details: addition of 25 nmol to minced scalp skin samples
Experimental: To determine whether the results obtained using cell culture are representative of events occurring in vivo aromatase was measured by the tritiated water assay in skin samples from male and female scalp. Tissue was minced and then incubated with 1β^3 H-androstenedione together with a source of NADPH. Each assay was done in the presence and absence of an aromatase inhibitor (4OH-androstenedione). Placental tissue was used as a positive control.

[3] = test system: aromatase activity in skin fibroblasts; test: Stimulation of fibroblast aromatase by pre-incubating cultured skin fibroblasts with hormones (tritiated water release assay); format: cell-based, human; details: for fold induction at 0.01 µM: Homo sapiens, Skin fibroblast
Experimental: (§1) In a preliminary study to investigate the above hypothesis we have measured aromatase activity in cultured human hair follicle dermal papilla cell lines and non-follicular skin fibroblasts from body sites with different responses to androgens. Aromatase was measured using the tritiated water released assay (13). The results are summarised as follows:
Fibroblast aromatase was stimulated by pre-incubating cells with testosterone at physiological concentrations (10 nmol). 19 cell lines were studied. Mean fold increase in aromatase activity (+/- SEM) was 2.69+/-0.38 (p<0.02 paired test). In separate experiments on three cell lines the response to a range of concentrations of testosterone and DHT was studied. Testosterone gave a twofold increase in aromatase maximal at 10 nmol. At the same concentration in response to DHT was over twice as great (4.3 fold).
Fibroblast aromatase was stimulated by pre-incubating the cells with testosterone at a physiological concentration (10 nmol). 19 cell lines were studied. Mean fold increase in aromatase activity (+/- SEM) was 2.69+/-0.38 (p<0.02 paired t test). In separate experiments on three cell lines the response to a range of concentrations of testosterone and DHT was studied. Testosterone gave a 2 fold increase in aromatase maximal at 10 nmol. At the same concentration the response to DHT was over twice as great (4.3 fold).

[4] = test system: aromatase activity in hair follicle dermal papilla cells; test: Induction of aromatase in cultured hair follicle dermal papilla cells (tritiated water release assay); format: cell-based, human
Experimental: as §1
No aromatase was detected in hair follicle dermal papilla cells cultured through any of the above sites (fourteen cell lines).
No aromatase was detected in hair follicle dermal papilla cells cultured from any of the above sites (14 cell lines).

balding = details: topical application, humans; cited from earlier work
female hair loss = details: several small trials, taken orally; cited from earlier work
[5] = substrate: C[C@]12CCC(=O)C=C1CC[C@@H]1[C@@H]2CC[C@]2(C)C(=O)CC[C@@H]12; test: cells, lysate or membranes; details: other: skin fibroblast lines from beard, occipital scalp and frontal scalp; no difference between the three sites
Experimental: as §2, §3

[6] = read-out: Fold increase in aromatase

For `C[C@]12CCC(=O)C(O)=C1CC[C@@H]1[C@@H]2CC[C@]2(C)C(=O)CC[C@@H]12` [4-OH androstenedione], the IC50 (aromatase [1]) was roughly 25 nM, the “Type of inhibition of fibroblast aromatase (kinetic studies)” value (aromatase [1]; three cell lines) was “irreversible competitive inhibition” and the “Effect on aromatase activity in scalp tissue” value (aromatase [2]) was “reduced activity to background levels”.

In the case of `C[C@]12CCC(=O)C[C@@H]1CC[C@@H]1[C@@H]2CC[C@]2(C)[C@@H](O)CC[C@@H]12` [DHT, dihydrotestosterone], the fold induction at 0.01 µM [3, 6] is reported as 4.3.

In the case of `C[C@@H]1C[C@H]2[C@@H]3CCC4=CC(=O)C=C[C@]4(C)[C@@]3(F)[C@@H](O)C[C@]2(C)[C@@]1(O)C(=O)CO` [Dexamethasone], the “Stimulation of aromatase in fibroblasts” value ([3]; skin fibroblasts) is reported as 10-20 fold and the “Induction of aromatase in dermal papilla cells” value [4] is reported as “induced aromatase”.

In the case of `Nc1cc(N2CCCCC2)nc(N)[n+]1[O-]` [Minoxidil], the “Subjects with modest recovery in early balding” value (balding) is listed as “about 30 % of subjects”.

For `CC(=O)O[C@]1(C(C)=O)CC[C@H]2[C@@H]3C=C(Cl)C4=CC(=O)[C@@H]5C[C@@H]5[C@]4(C)[C@H]3CC[C@@]21C` [cyproterone acetate], the “Effect on the aromatase response to testosterone and DHT” value ([3]; skin fibroblasts, androgen receptor blockade) is given as “inhibited” and the “Effect in female hair loss” value (female hair loss) is given as “small positive affect”.

In the case of `C[C@]12CC[C@H]3[C@@H](CCC4=CC(=O)CC[C@@]43C)[C@@H]1CC[C@@H]2O` [testosterone], the fold induction at 0.01 µM [3, 6] is reported as 2, the fold induction at 0.01 µM ([3]; read-out: Mean fold increase in aromatase activity (+/- SEM)) is reported as 2.69 ± 0.38 and the “Mean fold increase in aromatase activity (+/- SEM)” value ([3]; pre-incubation with 10 nmol, 19 fibroblast cell lines, p<0.02) is reported as 2.69+/-0.38 fold. For the same molecule, the “Fold increase in aromatase” value ([3]; separate experiments on three cell lines, range of concentrations, at 10 nmol (maximal for testosterone)) was “twofold” and the “Induction of aromatase in dermal papilla cells” value [4] was “failed to induce aromatase”.

B1: aromatase (Homo sapiens) (protein)
chain: T1 sequence (P11511 1-503)
In the case of B1, the Km [5] is reported as 25 nmol.

— patent US6020327A, “Control of hair growth” (The Central Sheffield University Hospitals NHS Trust, priority 1994, dated 2000)
